Results as given in ChEMBL document CHEMBL4513139, “CO-ADD screening of University of Strathclyde (UK) compounds”.
≈ marks a conversion by molar mass, not a printed value. Where “and” joins values, the source holds several entries; their conditions need not be identical. Equal values may be shown once.

These molecules were tested on Staphylococcus aureus (assay: microbe, parasite or virus in culture). Settings: ATCC 43300, 18 h, ASSAY_TEST Inhibition of Bacterial Growth, detection method Absorption (OD600), MEDIA CAMHB, plate type 384well, NBS, CORNING #3640.
Description: Antibacterial activity against Staphylococcus aureus MRSA ATCC 43300 (CO-ADD:GP_020); MIC in CAMBH media, using NBS plates, by OD(600)

| SMILES | MIC |
| --- | --- |
| CC(=O)Nc1cc(C(=O)Nc2cc(C(=O)Nc3nc(C(=O)NCCCN(C)C)c(CCC(C)C)s3)n(C)c2)n(C)c1 | 16 µg/mL (≈ 27.4 µM) |
| COCCOC1CCN(C(=O)c2cc(NC(=O)c3cc(NC(=O)c4ccc(/C=C/c5ccc(OC)cc5)nc4)cn3C)cn2C)CC1.O=S(=O)(O)O | > 32 µg/mL |
| Cn1cc(NC(=O)c2ccc(/C=C/c3cnc4ccccc4c3)cc2)cc1C(=O)NCCN1CCOCC1.O=C(O)C(F)(F)F.O=C(O)C(F)(F)F | 2 µg/mL |

Results, then the molecule that gave them:

| MIC | SMILES |
| --- | --- |
| 1 µg/mL | CN(C)CCNC(=O)c1cc(NC(=O)c2cc(NC(=O)c3ccc(/C=C/c4ccc(N(C)C)cc4)nc3)cn2C)cn1C.O=C(O)C(F)(F)F |
| > 32 µg/mL | COc1cccc(/C=C/c2ccc(C(=O)Nc3cc(C(=O)Nc4cc(C(=O)NCCN5CCCCC5)n(CCCc5ccccc5)c4)n(C)c3)cc2)c1.O=C(O)C(F)(F)F |
| > 32 µg/mL | Cn1cc(NC(=O)c2ccc(/C=C/c3cnc4ccccc4c3)cc2)cc1C(=O)Nc1cc(C(=O)NCCN2CCOCC2)n(CCCc2ccccc2)c1.O=C(O)C(F)(F)F.O=C(O)C(F)(F)F |

These molecules were tested on Cryptococcus neoformans (assay: not given). Settings: not given.

| SMILES | MIC |
| --- | --- |
| CC(=O)Nc1cc(C(=O)Nc2cc(C(=O)Nc3nc(C(=O)NCCCN(C)C)c(CCC(C)C)s3)n(C)c2)n(C)c1 | 16 µg/mL (≈ 27.4 µM) |
| COCCOC1CCN(C(=O)c2cc(NC(=O)c3cc(NC(=O)c4ccc(/C=C/c5ccc(OC)cc5)nc4)cn3C)cn2C)CC1.O=S(=O)(O)O | > 32 µg/mL |
| Cn1cc(NC(=O)c2ccc(/C=C/c3cnc4ccccc4c3)cc2)cc1C(=O)NCCN1CCOCC1.O=C(O)C(F)(F)F.O=C(O)C(F)(F)F | 32 µg/mL |

Other lines, results leading:

| MIC | SMILES |
| --- | --- |
| > 32 µg/mL | COc1cccc(/C=C/c2ccc(C(=O)Nc3cc(C(=O)Nc4cc(C(=O)NCCN5CCCCC5)n(CCCc5ccccc5)c4)n(C)c3)cc2)c1.O=C(O)C(F)(F)F |
| 4 µg/mL and 8 µg/mL | Cn1cc(NC(=O)c2ccc(/C=C/c3cnc4ccccc4c3)cc2)cc1C(=O)Nc1cc(C(=O)NCCN2CCOCC2)n(CCCc2ccccc2)c1.O=C(O)C(F)(F)F.O=C(O)C(F)(F)F |

The molecules below were run on Candida albicans (assay: microbe, parasite or virus in culture). Settings: ATCC 90028, ASSAY_TEST Inhibition of Fungal Growth, detection method Absorption (OD530), plate type 384well, NBS, CORNING #3640.
Description: Antifungal activity against Candida albicans ATCC 90028 (CO-ADD:FG_001); MIC in YNB media using NBS plates, by OD630

| SMILES | MIC |
| --- | --- |
| CC(=O)Nc1cc(C(=O)Nc2cc(C(=O)Nc3nc(C(=O)NCCCN(C)C)c(CCC(C)C)s3)n(C)c2)n(C)c1 | > 32 µg/mL |
| COCCOC1CCN(C(=O)c2cc(NC(=O)c3cc(NC(=O)c4ccc(/C=C/c5ccc(OC)cc5)nc4)cn3C)cn2C)CC1.O=S(=O)(O)O | > 32 µg/mL |
| Cn1cc(NC(=O)c2ccc(/C=C/c3cnc4ccccc4c3)cc2)cc1C(=O)NCCN1CCOCC1.O=C(O)C(F)(F)F.O=C(O)C(F)(F)F | > 32 µg/mL |

Results, then the molecule that gave them:

| MIC | SMILES |
| --- | --- |
| 1 µg/mL | CN(C)CCNC(=O)c1cc(NC(=O)c2cc(NC(=O)c3ccc(/C=C/c4ccc(N(C)C)cc4)nc3)cn2C)cn1C.O=C(O)C(F)(F)F |
| > 32 µg/mL | COc1cccc(/C=C/c2ccc(C(=O)Nc3cc(C(=O)Nc4cc(C(=O)NCCN5CCCCC5)n(CCCc5ccccc5)c4)n(C)c3)cc2)c1.O=C(O)C(F)(F)F |
| > 32 µg/mL | Cn1cc(NC(=O)c2ccc(/C=C/c3cnc4ccccc4c3)cc2)cc1C(=O)Nc1cc(C(=O)NCCN2CCOCC2)n(CCCc2ccccc2)c1.O=C(O)C(F)(F)F.O=C(O)C(F)(F)F |

What follows are molecules tested on Klebsiella pneumoniae (assay: microbe, parasite or virus in culture). Settings: ATCC 700603, 18 h, ASSAY_TEST Inhibition of Bacterial Growth, detection method Absorption (OD600), MEDIA CAMHB, plate type 384well, NBS, CORNING #3640.
Description: Antibacterial activity against Klebsiella pneumoniae MDR ATCC 70063 (CO-ADD:GN_003); MIC in CAMBH media using NBS plates, by OD(600)

| SMILES | MIC |
| --- | --- |
| CC(=O)Nc1cc(C(=O)Nc2cc(C(=O)Nc3nc(C(=O)NCCCN(C)C)c(CCC(C)C)s3)n(C)c2)n(C)c1 | > 32 µg/mL |
| COCCOC1CCN(C(=O)c2cc(NC(=O)c3cc(NC(=O)c4ccc(/C=C/c5ccc(OC)cc5)nc4)cn3C)cn2C)CC1.O=S(=O)(O)O | > 32 µg/mL |
| Cn1cc(NC(=O)c2ccc(/C=C/c3cnc4ccccc4c3)cc2)cc1C(=O)NCCN1CCOCC1.O=C(O)C(F)(F)F.O=C(O)C(F)(F)F | > 32 µg/mL |

Second part, the molecule after the results:

| MIC | SMILES |
| --- | --- |
| > 32 µg/mL | CN(C)CCNC(=O)c1cc(NC(=O)c2cc(NC(=O)c3ccc(/C=C/c4ccc(N(C)C)cc4)nc3)cn2C)cn1C.O=C(O)C(F)(F)F |
| > 32 µg/mL | COc1cccc(/C=C/c2ccc(C(=O)Nc3cc(C(=O)Nc4cc(C(=O)NCCN5CCCCC5)n(CCCc5ccccc5)c4)n(C)c3)cc2)c1.O=C(O)C(F)(F)F |
| > 32 µg/mL | Cn1cc(NC(=O)c2ccc(/C=C/c3cnc4ccccc4c3)cc2)cc1C(=O)Nc1cc(C(=O)NCCN2CCOCC2)n(CCCc2ccccc2)c1.O=C(O)C(F)(F)F.O=C(O)C(F)(F)F |

The molecules below were run on Pseudomonas aeruginosa (assay: microbe, parasite or virus in culture). Settings: ATCC 27853, 18 h, ASSAY_TEST Inhibition of Bacterial Growth, detection method Absorption (OD600), MEDIA CAMHB, plate type 384well, NBS, CORNING #3640.
Description: Antibacterial activity against Pseudomonas aeruginosa ATCC 27853 (CO-ADD:GN_042); MIC in CAMBH media using NBS plates, by OD(600)

| SMILES | MIC |
| --- | --- |
| CC(=O)Nc1cc(C(=O)Nc2cc(C(=O)Nc3nc(C(=O)NCCCN(C)C)c(CCC(C)C)s3)n(C)c2)n(C)c1 | > 32 µg/mL |
| COCCOC1CCN(C(=O)c2cc(NC(=O)c3cc(NC(=O)c4ccc(/C=C/c5ccc(OC)cc5)nc4)cn3C)cn2C)CC1.O=S(=O)(O)O | > 32 µg/mL |
| Cn1cc(NC(=O)c2ccc(/C=C/c3cnc4ccccc4c3)cc2)cc1C(=O)NCCN1CCOCC1.O=C(O)C(F)(F)F.O=C(O)C(F)(F)F | > 32 µg/mL |

More lines, now with the values ahead:

| MIC | SMILES |
| --- | --- |
| > 32 µg/mL | CN(C)CCNC(=O)c1cc(NC(=O)c2cc(NC(=O)c3ccc(/C=C/c4ccc(N(C)C)cc4)nc3)cn2C)cn1C.O=C(O)C(F)(F)F |
| > 32 µg/mL | COc1cccc(/C=C/c2ccc(C(=O)Nc3cc(C(=O)Nc4cc(C(=O)NCCN5CCCCC5)n(CCCc5ccccc5)c4)n(C)c3)cc2)c1.O=C(O)C(F)(F)F |
| > 32 µg/mL | Cn1cc(NC(=O)c2ccc(/C=C/c3cnc4ccccc4c3)cc2)cc1C(=O)Nc1cc(C(=O)NCCN2CCOCC2)n(CCCc2ccccc2)c1.O=C(O)C(F)(F)F.O=C(O)C(F)(F)F |

The molecules below were run on HEK293 (assay: cells). Settings: Homo sapiens, ATCC CRL1573, HEK293; ASSAY_TEST Inhibition of Cell Viability; detection method Resazurin; Fluorescence (ex560/em590); MEDIA DMEM with 10% FBS; plate type 384well; TC; CORNING #3712; time 18 hr; read-out: CC50.
Type: functional, Homo sapiens, ATCC CRL1573

| SMILES | CC50 |
| --- | --- |
| CC(=O)Nc1cc(C(=O)Nc2cc(C(=O)Nc3nc(C(=O)NCCCN(C)C)c(CCC(C)C)s3)n(C)c2)n(C)c1 | > 32 µg/mL |
| CN(C)CCNC(=O)c1cc(NC(=O)c2cc(NC(=O)c3ccc(/C=C/c4ccc(N(C)C)cc4)nc3)cn2C)cn1C.O=C(O)C(F)(F)F | 2.17 µg/mL |
| COCCOC1CCN(C(=O)c2cc(NC(=O)c3cc(NC(=O)c4ccc(/C=C/c5ccc(OC)cc5)nc4)cn3C)cn2C)CC1.O=S(=O)(O)O | 15.5 µg/mL |
| Cn1cc(NC(=O)c2ccc(/C=C/c3cnc4ccccc4c3)cc2)cc1C(=O)NCCN1CCOCC1.O=C(O)C(F)(F)F.O=C(O)C(F)(F)F | 2.42 µg/mL |
| COc1cccc(/C=C/c2ccc(C(=O)Nc3cc(C(=O)Nc4cc(C(=O)NCCN5CCCCC5)n(CCCc5ccccc5)c4)n(C)c3)cc2)c1.O=C(O)C(F)(F)F | 16 µg/mL |

These molecules were tested on Escherichia coli (assay: microbe, parasite or virus in culture). Settings: ATCC 25922, 18 h, ASSAY_TEST Inhibition of Bacterial Growth, detection method Absorption (OD600), MEDIA CAMHB, plate type 384well, NBS, CORNING #3640.
Description: Antibacterial activity against Escherichia coli ATCC 25922 (CO-ADD:GN_001); MIC in CAMBH media using NBS plates, by OD(600)

| SMILES | MIC |
| --- | --- |
| CC(=O)Nc1cc(C(=O)Nc2cc(C(=O)Nc3nc(C(=O)NCCCN(C)C)c(CCC(C)C)s3)n(C)c2)n(C)c1 | > 32 µg/mL |
| COCCOC1CCN(C(=O)c2cc(NC(=O)c3cc(NC(=O)c4ccc(/C=C/c5ccc(OC)cc5)nc4)cn3C)cn2C)CC1.O=S(=O)(O)O | > 32 µg/mL |
| Cn1cc(NC(=O)c2ccc(/C=C/c3cnc4ccccc4c3)cc2)cc1C(=O)NCCN1CCOCC1.O=C(O)C(F)(F)F.O=C(O)C(F)(F)F | > 32 µg/mL |

The remaining lines, values ahead:

| MIC | SMILES |
| --- | --- |
| > 32 µg/mL | CN(C)CCNC(=O)c1cc(NC(=O)c2cc(NC(=O)c3ccc(/C=C/c4ccc(N(C)C)cc4)nc3)cn2C)cn1C.O=C(O)C(F)(F)F |
| > 32 µg/mL | COc1cccc(/C=C/c2ccc(C(=O)Nc3cc(C(=O)Nc4cc(C(=O)NCCN5CCCCC5)n(CCCc5ccccc5)c4)n(C)c3)cc2)c1.O=C(O)C(F)(F)F |
| > 32 µg/mL | Cn1cc(NC(=O)c2ccc(/C=C/c3cnc4ccccc4c3)cc2)cc1C(=O)Nc1cc(C(=O)NCCN2CCOCC2)n(CCCc2ccccc2)c1.O=C(O)C(F)(F)F.O=C(O)C(F)(F)F |

What follows are molecules tested on Acinetobacter baumannii (assay: microbe, parasite or virus in culture). Settings: ATCC 19606, 18 h, ASSAY_TEST Inhibition of Bacterial Growth, detection method Absorption (OD600), MEDIA CAMHB, plate type 384well, NBS, CORNING #3640.
Description: Antibacterial activity against Acinetobacter baumannii ATCC 19606 (CO-ADD:GN_034); MIC in CAMBH media using NBS plates, by OD600

| SMILES | MIC |
| --- | --- |
| CC(=O)Nc1cc(C(=O)Nc2cc(C(=O)Nc3nc(C(=O)NCCCN(C)C)c(CCC(C)C)s3)n(C)c2)n(C)c1 | > 32 µg/mL |
| COCCOC1CCN(C(=O)c2cc(NC(=O)c3cc(NC(=O)c4ccc(/C=C/c5ccc(OC)cc5)nc4)cn3C)cn2C)CC1.O=S(=O)(O)O | > 32 µg/mL |
| Cn1cc(NC(=O)c2ccc(/C=C/c3cnc4ccccc4c3)cc2)cc1C(=O)NCCN1CCOCC1.O=C(O)C(F)(F)F.O=C(O)C(F)(F)F | > 32 µg/mL |

Further lines, results first:

| MIC | SMILES |
| --- | --- |
| > 32 µg/mL | CN(C)CCNC(=O)c1cc(NC(=O)c2cc(NC(=O)c3ccc(/C=C/c4ccc(N(C)C)cc4)nc3)cn2C)cn1C.O=C(O)C(F)(F)F |
| > 32 µg/mL | COc1cccc(/C=C/c2ccc(C(=O)Nc3cc(C(=O)Nc4cc(C(=O)NCCN5CCCCC5)n(CCCc5ccccc5)c4)n(C)c3)cc2)c1.O=C(O)C(F)(F)F |
| > 32 µg/mL | Cn1cc(NC(=O)c2ccc(/C=C/c3cnc4ccccc4c3)cc2)cc1C(=O)Nc1cc(C(=O)NCCN2CCOCC2)n(CCCc2ccccc2)c1.O=C(O)C(F)(F)F.O=C(O)C(F)(F)F |
